# Laboratory results reported in US6414157B1, “3-Substituted tetrahydropyridopyrimidinone derivatives, method for producing the same, and their use” (Abbott Laboratories, priority 1997, dated 2002).
# Structures can show the parent of a compound that is named as a salt.
# Columns and labels:
# [1] = system: serotonin release in the dorsal raphe nucleus; conditions: dorsal raphe nucleus of the rat; together with paroxetine; cited from earlier work
# [2] = system: serotonin release in the cortex; conditions: after systemic administration; cited from earlier work
SMILES,melting point,effect of paroxetine on serotonin release [1],serotonin release in the cortex [2]
COc1ccccc1N1CCN(CCn2cnc3c(c2=O)CCN(Cc2ccccc2)C3)CC1 (as salt: hydrochloride),181 °C,–,–
COc1ccccc1N1CCN(CCCn2cnc3c(c2=O)CN(Cc2ccccc2)CC3)CC1 (as salt: hydrochloride),198 °C,–,–
COc1ccc(NC(=O)c2ccc(-c3ccc(-c4noc(C)n4)cc3C)cc2)cc1N1CCN(C)CC1 [GR 127 935],–,potentiated,reduces serotonin release in the cortex
